In PubChem BioAssay AID248 (DTP/NCI, 2004):
Values joined by “and” are separate entries in the source; they are usually repeats but may differ in a detail not shown here. Identical values can stand only once. Toxic doses and inconclusive results are not listed. Cut-off read from the data, not from the text of the source: active = T/C of 150% or more; inactive = T/C below 125%.

Tested on: L1210 leukemia ip in BDF1 mice, survival T/C
Experiment: NCI In Vivo Anticancer Drug Screen. Data for tumor model L1210 Leukemia (intraperitoneal) in B6D2F1 (BDF1) mice
Settings: endpoint: mean survival time, higher = longer survival
In short: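 Tumor was transplanted into mice, which were then dosed with test compound or vehicle alone. Survival was recorded for each group, and the treated figure was expressed relative to the control figure.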

[1] = dose: 25.0 mg/kg/injection, schedule: Q01DX009 (ip), vehicle: Klucel (hydroxypropylcellulose) (HPC)
[2] = dose: 50.0 mg/kg/injection, schedule: Q01DX009 (ip), vehicle: Klucel (hydroxypropylcellulose) (HPC)
[3] = dose: 100.0 mg/kg/injection, schedule: Q01DX009 (ip), vehicle: Klucel (hydroxypropylcellulose) (HPC)
[4] = dose: 100.0 mg/kg/injection, schedule: Q01DX001 (ip), vehicle: other
[5] = dose: 200.0 mg/kg/injection, schedule: Q01DX001 (ip), vehicle: other
[6] = dose: 400.0 mg/kg/injection, schedule: Q01DX001 (ip), vehicle: other
[7] = dose: 100.0 mg/kg/injection, schedule: Q01DX001 (ip), vehicle: saline
[8] = dose: 100.0 mg/kg/injection, schedule: Q01DX009 (ip), vehicle: saline
[9] = dose: 100.0 mg/kg/injection, schedule: Q04DX002 (ip), vehicle: saline
[10] = dose: 100.0 mg/kg/injection, schedule: Q04DX003 (ip), vehicle: saline
[11] = dose: 200.0 mg/kg/injection, schedule: Q01DX001 (ip), vehicle: saline
[12] = dose: 200.0 mg/kg/injection, schedule: Q04DX002 (ip), vehicle: saline
[13] = dose: 400.0 mg/kg/injection, schedule: Q01DX001 (ip), vehicle: saline
[14] = dose: 100.0 mg/kg/injection, schedule: Q01DX009 (ip), vehicle: saline with Tween-80
[15] = dose: 200.0 mg/kg/injection, schedule: Q01DX009 (ip), vehicle: saline with Tween-80
[16] = dose: 400.0 mg/kg/injection, schedule: Q01DX009 (ip), vehicle: saline with Tween-80

Measured: T/C

CN1CCN(C(=O)c2ccc(C(=O)N3CCN(C)CC3)cc2)CC1
inactive: dose: 15.0 mg/kg/injection, schedule: Q01DX Z (ip), vehicle: saline 94 % of control | dose: 30.0 mg/kg/injection, schedule: Q01DX Z (ip), vehicle: saline 94 % of control | dose: 60.0 mg/kg/injection, schedule: Q01DX Z (ip), vehicle: saline 108 % of control | dose: 120.0 mg/kg/injection, schedule: Q01DX Z (ip), vehicle: saline 102 % of control | dose: 125.0 mg/kg/injection, schedule: Q01DX Z (ip), vehicle: carboxymethylcellulose (CMC) 96 % of control | dose: 250.0 mg/kg/injection, schedule: Q01DX Z (ip), vehicle: carboxymethylcellulose (CMC) 102 % of control | dose: 500.0 mg/kg/injection, schedule: Q01DX Z (ip), vehicle: carboxymethylcellulose (CMC) 90 % of control

Cc1ccc(C(O)C(=O)O)cc1 (configuration not stated)
inactive: dose: 75.0 mg/kg/injection, schedule: Q01DX001 (ip), vehicle: acetone 100 % of control | dose: 150.0 mg/kg/injection, schedule: Q01DX001 (ip), vehicle: acetone 96 % of control

O=C1OCC/C1=C/c1cccc(O)c1
inactive: dose: 3.12 mg/kg/injection, schedule: Q04DX002 (ip), vehicle: Klucel (hydroxypropylcellulose) (HPC) 97 % of control | dose: 6.25 mg/kg/injection, schedule: Q04DX002 (ip), vehicle: Klucel (hydroxypropylcellulose) (HPC) 108 % of control | dose: 12.5 mg/kg/injection, schedule: Q04DX002 (ip), vehicle: Klucel (hydroxypropylcellulose) (HPC) 101 % of control

OC1=NN(Cc2ccccc2)NO1
inactive: [1] 95 % of control | [2] 95 % of control | [3] 92 % of control | dose: 100.0 mg/kg/injection, schedule: Q04DX002 (ip), vehicle: Klucel (hydroxypropylcellulose) (HPC) 104 % of control | dose: 200.0 mg/kg/injection, schedule: Q04DX002 (ip), vehicle: Klucel (hydroxypropylcellulose) (HPC) 104 % of control | dose: 400.0 mg/kg/injection, schedule: Q04DX002 (ip), vehicle: Klucel (hydroxypropylcellulose) (HPC) 93 % of control

O=C(N/N=C/c1ccccc1)C(Oc1ccccc1)c1ccccc1 (configuration not stated)
inactive: dose: 100.0 mg/kg/injection, schedule: Q01DX001 (ip), vehicle: carboxymethylcellulose (CMC) 94 % of control | dose: 200.0 mg/kg/injection, schedule: Q01DX001 (ip), vehicle: carboxymethylcellulose (CMC) 94 % of control | dose: 400.0 mg/kg/injection, schedule: Q01DX001 (ip), vehicle: carboxymethylcellulose (CMC) 100 % of control

COc1ccc(CCCCCl)cc1
inactive: dose: 100.0 mg/kg/injection, schedule: Q01DX001 (ip), vehicle: acetone 95 % of control | dose: 200.0 mg/kg/injection, schedule: Q01DX001 (ip), vehicle: acetone 95 % of control | dose: 400.0 mg/kg/injection, schedule: Q01DX001 (ip), vehicle: acetone 96 % of control

COc1cccc(/C=N/NC(=O)c2ccncc2)c1OC
inactive: [1] 97 % of control | [2] 101 % of control | [3] 92 % of control and 105 % of control

O=c1[nH]cnc2nc(/N=N/SCCO)[nH]c12
inactive: dose: 44.4 mg/kg/injection, schedule: Q01DX Z (ip), vehicle: methylcellulose (MC) 101 % of control | dose: 66.6 mg/kg/injection, schedule: Q01DX Z (ip), vehicle: methylcellulose (MC) 108 % of control | dose: 100.0 mg/kg/injection, schedule: Q01DX Z (ip), vehicle: methylcellulose (MC) 116 % of control | dose: 150.0 mg/kg/injection, schedule: Q01DX Z (ip), vehicle: methylcellulose (MC) 121 % of control

CC(=O)N=c1ccc(C)cn1O
inactive: dose: 75.0 mg/kg/injection, schedule: Q01DX009 (ip), vehicle: Klucel (hydroxypropylcellulose) (HPC) 91 % of control | dose: 100.0 mg/kg/injection, schedule: Q04DX003 (ip), vehicle: Klucel (hydroxypropylcellulose) (HPC) 104 % of control | dose: 150.0 mg/kg/injection, schedule: Q01DX009 (ip), vehicle: Klucel (hydroxypropylcellulose) (HPC) 102 % of control | dose: 200.0 mg/kg/injection, schedule: Q04DX003 (ip), vehicle: Klucel (hydroxypropylcellulose) (HPC) 100 % of control | dose: 300.0 mg/kg/injection, schedule: Q01DX009 (ip), vehicle: Klucel (hydroxypropylcellulose) (HPC) 96 % of control | dose: 400.0 mg/kg/injection, schedule: Q04DX003 (ip), vehicle: Klucel (hydroxypropylcellulose) (HPC) 102 % of control

O=S(Cc1ccccc1)C(Cl)(Cl)c1ccccc1 (configuration not stated)
inactive: [4] 96 % of control | [5] 98 % of control | [6] 102 % of control

COC(=O)C(O)(C#CC(C)C)c1ccccc1 (configuration not stated)
inactive: [4] 107 % of control | [5] 100 % of control | [6] 94 % of control

CC(=O)NC(C)C(=O)O (configuration not stated)
inactive: [7] 90 % of control and 92 % of control | [8] 100 % of control and 111 % of control and 103 % of control | [9] 96 % of control and 111 % of control and 92 % of control | [10] 89 % of control and 103 % of control | [11] 106 % of control and 93 % of control | dose: 200.0 mg/kg/injection, schedule: Q01DX009 (ip), vehicle: saline 93 % of control and 92 % of control and 97 % of control | [12] 105 % of control and 93 % of control and 94 % of control | dose: 200.0 mg/kg/injection, schedule: Q04DX003 (ip), vehicle: saline 90 % of control and 98 % of control | [13] 94 % of control and 93 % of control | dose: 400.0 mg/kg/injection, schedule: Q01DX009 (ip), vehicle: saline 90 % of control and 92 % of control and 100 % of control | dose: 400.0 mg/kg/injection, schedule: Q04DX002 (ip), vehicle: saline 96 % of control and 94 % of control and 101 % of control | dose: 400.0 mg/kg/injection, schedule: Q04DX003 (ip), vehicle: saline 94 % of control and 103 % of control

COc1ccc(C(CCCC(=O)O)c2ccc(OC)cc2)cc1
inactive: [7] 112 % of control | [11] 104 % of control | [13] 104 % of control

CC(C)(C)OC(=O)CC1(C)CCC2C1C(=O)OC2(C)C (configuration not stated)
inactive: dose: 25.0 mg/kg/injection, schedule: Q04DX003 (ip), vehicle: saline 98 % of control | dose: 50.0 mg/kg/injection, schedule: Q04DX003 (ip), vehicle: saline 98 % of control | [7] 91 % of control | [10] 102 % of control

CC1(C)SC(C)(C)C1=O
inactive: dose: 50.0 mg/kg/injection, schedule: Q04DX002 (ip), vehicle: gum acacia 100 % of control | dose: 100.0 mg/kg/injection, schedule: Q04DX002 (ip), vehicle: gum acacia 96 % of control | dose: 200.0 mg/kg/injection, schedule: Q04DX002 (ip), vehicle: gum acacia 107 % of control

CCCCCCCCCCCCCCCCNCCCN
inactive: dose: 100.0 mg/kg/injection, schedule: Q04DX003 (ip), vehicle: saline with Tween-80 98 % of control | dose: 200.0 mg/kg/injection, schedule: Q04DX003 (ip), vehicle: saline with Tween-80 96 % of control

CCCC(CCN(C)C)(CNC(=O)CN(CC)CC)c1cccc2ccccc12 (configuration not stated)
inactive: dose: 50.0 mg/kg/injection, schedule: Q04DX002 (ip), vehicle: saline 105 % of control | [8] 99 % of control | [9] 100 % of control | [12] 100 % of control

C1C2OC2CC2OC12 (configuration not stated)
inactive: [14] 95 % of control | [15] 96 % of control | [16] 95 % of control

CCOc1ccccc1Cl
inactive: [14] 97 % of control | [15] 102 % of control | [16] 95 % of control
